Source: patent US7879115B2, “Method for using a static electric field to induce crystallization and to control crystal form” (Intellectual Ventures Holding 19, LLC, priority 2004, dated 2011)
Where two headings read alike, the source gives them in different places. Each block holds one molecule with its values, some of them ahead of it.

How the values were obtained:
[1] = Static (DC) electric field induced nucleation of aged supersaturated aqueous solutions; polymorph by x-ray powder diffraction; type: physicochemical; details: for timescale on which macroscopic crystals form: supersaturated aqueous solution subjected to static electric field; for percent of the exposed solutions that nucleated within the 10-minute exposure time: 6×10^5 V/m DC field, γ glycine
Procedure: Great care was taken to exclude dust from samples. Supersaturated solutions were generated by heating the tubes to 62-64° C. and holding them at that temperature in an ultrasonicator overnight.
A chamber was constructed consisting of two brass electrodes separated by a 5 mm insulating gap, with a hole drilled down through the center, parallel to the gap-electrode interface, with a diameter large enough to accommodate the test tube, to create a high voltage chamber. Test tubes containing the aged solutions were placed in the high voltage chamber.
A DC voltage was applied across the electrodes, large enough to produce electric fields in the range of 400,000 to 800,000 V/m. Tests tubes containing the aged solutions were placed in the high-voltage chamber. […] If crystals formed in the test tubes, the crystals were removed from the solution and dried. The structure of these crystals was analyzed by grinding up the crystal into a powder and obtaining an x-ray powder diffraction pattern.
(§1) The supersaturated solutions were in the concentration range of 5.5 to 6.0 molal. […] These solutions had supersaturations (SS) ranging from 1.85 to 2.0; SS=c/csat, where csat is the saturation concentration.
Solutions were aged for 2 to 5 weeks and exposed to a 6×10^5 V/m DC field for 10 minutes. Semi-cylindrical electrodes were constructed from a 5 cm×5 cm×5.5 cm block of brass, with the center drilled out so that the sample tubes would fit snugly, and then split in half and material removed to create a 5 mm gap, as shown in FIG. 1. […] All sharp edges were rounded in the actual electrodes. The electrodes are insulated and held firmly in position by Delrin plates, screwed together to make a covered box, with 5 mm thick spacers to hold the cylindrical electrodes at the proper spacing. There are two long narrow gaps in the insulation, matching the electrode gap 20, so that most of the length of the sample tube is visible from either side, and there is a small hole in the bottom insulating plate, with a mount for an optical fiber. A Glassman EH regulated power supply provided 0-15 kV DC.
A low power monitoring continuous-wave laser beam at a wavelength of 532 nm, defocused in one direction with a cylindrical lens to generate a pencil-shaped beam, was directed through the electrode gap 20 and illuminated the length of the sample tube. The transmitted light was imaged on white paper. Light scattered perpendicular to the beam was collected with an optical fiber attached at the bottom of the cell and monitored with a power meter.
(§2) Crystals formed in the test tubes were removed from the solution and dried. The structure of these crystals was analyzed by grinding up the crystal into a powder and obtaining an x-ray powder diffraction pattern.

[2] = room temperature, approximately 20° C., water; cited from earlier work
[3] = Procedure: as §1, §2
Towler, C. S. et al., Journal of the American Chemical Society, Vol. 126, pp. 13347-13353 (2004).

[4] = supersaturated aqueous solutions
Description: Such species, when subjected to a DC electric field, will tend to migrate toward the electrode with the opposite charge, effectively increasing the supersaturation near the electrode, which in itself can be responsible for inducing nucleation.

[5] = average charge on a glycine molecule is zero; cited from earlier work

timescale on which macroscopic crystals form [1]: minutes
SMILES: C[C@H](N)C(=O)O [L-alanine]

percent of the exposed solutions that nucleated within the 10-minute exposure time ([1]; 1.85 SS, after 16 days aging): 24%
percent of the exposed solutions that nucleated within the 10-minute exposure time ([1]; 1.9-2.0 SS, after 14 days aging): 33%
percent of the exposed solutions that nucleated within the 10-minute exposure time ([1]; 1.9-2.0 SS, after 36 days aging): 40%
% samples mixed α + γ ([1]; SS 1.85, DC field): 0%
% samples pure α ([1]; SS 1.85, DC field): 50%
% samples pure γ ([1]; SS 1.85, DC field): 50%
% samples mixed α + γ ([1]; SS 1.9–2.0, DC field): 0%
% samples pure α ([1]; SS 1.9–2.0, DC field): 0%
% samples pure γ ([1]; SS 1.9–2.0, DC field): 100%
time until crystallization observed ([1]; electric field strength 600,000 V/m): 30 to 90 min
induction of nucleation by field exposure ([1]; field of 400,000 V/m, aged solutions): not sufficient to induce nucleation
timescale on which macroscopic crystals form [1]: hours
Spontaneous nucleation rate for a ten-minute time window ([3]; 1.85 SS, no field): 0.02%
% samples mixed α + γ ([3]; SS 1.85, Spontaneous): 0%
% samples pure α ([3]; SS 1.85, Spontaneous): 86%
% samples pure γ ([3]; SS 1.85, Spontaneous): 14%
% samples mixed α + γ ([3]; SS 1.9–2.0, Spontaneous): 27%
% samples pure α ([3]; SS 1.9–2.0, Spontaneous): 13%
% samples pure γ ([3]; SS 1.9–2.0, Spontaneous): 60%
pH of aqueous glycine solutions exposed to DC fields [4]: 6.4-6.5
SMILES: NCC(=O)O [glycine]
saturation concentration csat [2]: 3.0 molal
isoelectric point (pH) [5]: 6.0
